In general, AUC refers to concentration integrated over time. A higher AUC goes with high exposure. The term inhibition denotes the drop in the measured response relative to a control, in per cent.

Structures can show the parent of a compound that is named as a salt. Where two headings read alike, the source gives them in different places.

The test system of one data set is DIO mouse. The data set can be described thus: Anti-obesity effect test using DIO mouse. The data set is classed as in vivo. The note with it: 336 h, DIO mice, vs vehicle group, read-out: Weight loss rate; for inhibition in vivo at 30 mg/kg: oral 30 mg/kg once daily for 2 weeks; for inhibition in vivo at 100 mg/kg: oral 100 mg/kg once daily for 2 weeks. The protocol: (Test Example 4): Anti-Obesity Effect Test Using DIO Mouse
Diet-induced obesity (DIO) mice (D-12492 diet, male, C57BL-DIO, 26 to 28-week old) were orally administered with a 0.5 W/V % methylcellulose suspension comprising each test compound (Compound administration group, 5 or 6 mice/group) or a 0.5 W/V % methylcellulose suspension (Compound non-administration group (Vehicle group), 6 mice/group) once daily for 2 weeks. Weight loss rate was calculated by the following equation. Weight loss rate (%) of each Compound administration group−(1−average weight at the last day of the test of each Compound administration group/average weight at the last day of the test of Vehicle group)×100

Data set [1] in a line: Rat pharmacokinetic (PK) test (plasma concentration after oral administration). To be noted: male, SD.
Data set [2] has as its target T1, Human recombinant trypsin (Homo sapiens, UniProt P07477).
T1 construct: purchased Wako Pure Chemical Industries, Ltd. 206-17171
The data set can be described thus: Human trypsin inhibition test. Type of data set: biochemical. To be noted: 20 minutes after reaction start, read-out: Inhibition rate (trypsin); for inhibition at 0.01 µM: compound concentration 10 nM; for inhibition at 0.1 µM: compound concentration 100 nM; for inhibition at 0.001 µM: compound concentration 1 nM. Here is the method:
(Test Example 2): Human Trypsin Inhibition Test
Human recombinant trypsin (manufactured by Wako Pure Chemical Industries, Ltd., code no.: 206-17171) was diluted with an assay buffer (0.1 M Tris-HCl (pH8.0), 0.15 M NaCl, 10 mM CaCl2, 0.05% Brij35) to prepare a 10 ng/mL enzyme solution. Then, Boc-Phe-Ser-Arg-MCA (manufactured by PEPTIDE INSTITUTE, INC., code no.: 3107-v) was diluted with the assay buffer to prepare a 40 μM substrate solution. Each test compound was dissolved into DMSO, then diluted with the assay buffer 100 times, and further appropriately diluted with an assay buffer comprising 1% DMSO to prepare each compound solution. 10 μL of the compound solution, 15 μL of the assay buffer, and 50 μL of the substrate solution were added to a 96 well black plate (manufactured by Thermo Fisher Scientific Inc., code no.: 9502867), mixed, and then 25 μL of the enzyme solution was added thereto, and mixed to start the reaction. Fluorescence intensities at excitation wavelength 355 nm and fluorescence wavelength of 460 nm were measured by using a fluorescence plate reader (Flex station 3) (Test compound addition group). Also, the same reaction as described above except for not adding each test compound was carried out (Test compound non-addition group). Additionally, the same reaction as described above except for not adding each test compound and the enzyme was carried out (Control group). Inhibition rate was calculated by the following equation using fluorescence intensity after 20 minutes of reaction start. Inhibition rate (%)=(1−(fluorescence intensity of Test compound addition group−fluorescence intensity of Control group)[…](fluorescence intensity of Test compound non-addition group−fluorescence intensity of Control group))×100

Data set [3] deals with T2, Human recombinant enteropeptidase (Homo sapiens, UniProt P98073).
T2 construct: purchased BIO Vision Inc. 7529-50
The data set can be described thus: Human enteropeptidase inhibition test. The data set is classed as biochemical. To be noted: read-out: Inhibition rate (enteropeptidase); for inhibition at 0.001 µM: compound concentration 1 nM. Here is the method: (Test Example 1): Human Enteropeptidase Inhibition Test
Human recombinant enteropeptidase (manufactured by BIO Vision Inc., catalog no.: 7529-50) was diluted with an assay buffer (50 mM tricine (pH8.0), 0.01 W/V % Tween 20, 10 mM CaCl2) to prepare an […] enzyme solution. Then, 5FAM-Abu-Gly-Asp-Asp-Lys-Ile-Val-Gly-Gly-Lys (CPQ2)-Lys-Lys-NH2 (manufactured by CHINESE PEPTIDE COMPANY, purity: 94.5) was diluted with the assay buffer to prepare a 1.5 μM substrate solution. Each test compound was dissolved into DMSO, then diluted with the assay buffer 100 times, and further appropriately diluted with an assay buffer comprising 1% DMSO to prepare each compound solution. 10 μL of the compound solution, 15 μL of the assay buffer, and 50 μL of the substrate solution were added to a 96 well black plate (manufactured by Thermo Fisher Scientific Inc., code no.: 9502867), mixed, then 25 μL of the enzyme solution was added thereto, and mixed to start the reaction. Fluorescence intensities at excitation wavelength 485 nm and fluorescence wavelength 535 nm were measured by using a fluorescence plate reader (Flex station 3) (Test compound addition group). Also, the same reaction as described above except for not adding each test compound was carried out (Test compound non-addition group). Additionally, the same reaction as described above except for not adding each test compound and the enzyme was carried out (Control group). Inhibition rate was calculated by the following equation using fluorescence intensity after 20 minutes of reaction start. Inhibition rate (%)=(1−(fluorescence intensity of Test compound addition group−fluorescence intensity of Control group)÷(fluorescence intensity of Test compound non-addition group−fluorescence intensity of Control group))×100

The mark [4] stands for this setting: 20 minutes after reaction start.
Setting [5] is: compound concentration 10 nM, 20 minutes after reaction start.
Where [6] appears, read: compound concentration 100 nM, 20 minutes after reaction start.

T2 sequence (P98073 whole entry): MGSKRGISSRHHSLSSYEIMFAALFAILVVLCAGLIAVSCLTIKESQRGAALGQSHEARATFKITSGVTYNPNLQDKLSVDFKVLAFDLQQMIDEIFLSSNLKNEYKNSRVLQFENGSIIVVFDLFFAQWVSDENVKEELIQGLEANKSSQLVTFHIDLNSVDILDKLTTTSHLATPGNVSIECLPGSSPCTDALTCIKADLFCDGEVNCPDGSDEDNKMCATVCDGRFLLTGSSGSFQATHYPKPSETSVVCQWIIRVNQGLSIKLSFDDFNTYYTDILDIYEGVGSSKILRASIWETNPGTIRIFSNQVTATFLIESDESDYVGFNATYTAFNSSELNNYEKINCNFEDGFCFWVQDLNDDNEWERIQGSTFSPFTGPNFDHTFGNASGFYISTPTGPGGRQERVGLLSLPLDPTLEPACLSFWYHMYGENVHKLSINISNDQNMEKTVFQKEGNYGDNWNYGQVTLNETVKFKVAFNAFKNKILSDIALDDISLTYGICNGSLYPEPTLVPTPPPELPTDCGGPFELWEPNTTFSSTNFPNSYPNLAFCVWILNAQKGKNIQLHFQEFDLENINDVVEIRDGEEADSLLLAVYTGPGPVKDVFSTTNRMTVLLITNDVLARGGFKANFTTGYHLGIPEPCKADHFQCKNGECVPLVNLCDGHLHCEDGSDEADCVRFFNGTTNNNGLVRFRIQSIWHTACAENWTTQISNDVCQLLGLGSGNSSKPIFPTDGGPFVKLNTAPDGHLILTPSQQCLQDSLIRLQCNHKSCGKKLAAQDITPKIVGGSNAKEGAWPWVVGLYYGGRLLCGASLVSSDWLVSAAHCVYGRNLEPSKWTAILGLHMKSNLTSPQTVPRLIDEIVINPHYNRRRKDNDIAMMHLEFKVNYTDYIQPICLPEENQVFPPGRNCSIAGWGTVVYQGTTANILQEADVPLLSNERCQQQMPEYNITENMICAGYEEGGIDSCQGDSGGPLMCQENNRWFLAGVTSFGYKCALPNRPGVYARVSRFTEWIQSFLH

With `N=C(N)Nc1ccc(C(=O)Oc2ccc(CNS(=O)(=O)N(CCOCCOCCN([C@@H](CC(=O)O)C(=O)O)S(=O)(=O)NCc3ccc(OC(=O)c4ccc(NC(=N)N)cc4)cc3)[C@@H](CC(=O)O)C(=O)O)cc2)cc1` [2-(c)], in the data set with DIO mouse, the inhibition in vivo at 30 mg/kg was not below 4%. For the same molecule, the AUC in data set [1] (10 mg/kg) is not above 100 ng·h/mL.
On to `Cl.N=C(N)Nc1ccc(C(=O)Oc2ccc(CNS(=O)(=O)N(CCOCCOCCOCCOCCOCCOCCN([C@@H](CC(=O)O)C(=O)O)S(=O)(=O)NCc3ccc(OC(=O)c4ccc(NC(=N)N)cc4)cc3)[C@@H](CC(=O)O)C(=O)O)cc2)cc1` [6-(c), (2S,25S)-3,24-bis(N-(4-((4-guanidinobenzoyl)oxy)benzyl)sulfamoyl)-6,9,12,15,18,21-hexaoxa-3,24-diazahexacosane-1,2,25,26-tetracarboxylic acid hydrochloride], for which the inhibition in vivo at 100 mg/kg in the data set with DIO mouse was not below 4%. Moreover, in data set [1] (10 mg/kg), the exposure (AUC) is not above 100 ng·h/mL.
Regarding `N=C(N)Nc1ccc(C(=O)Oc2ccc(COC(=O)N(CC(=O)O)[C@@H](CC(=O)O)C(=O)N[C@@H](CC(=O)O)C(=O)NCCOCCOCCOCCOCCNC(=O)[C@H](CC(=O)O)NC(=O)[C@H](CC(=O)O)N(CC(=O)O)C(=O)OCc3ccc(OC(=O)c4ccc(NC(=N)N)cc4)cc3)cc2)cc1` [15-(b), (4S,7S,26S,29)-4,7,26,29-tetrakis(carboxymethyl)-3,30-bis((4-((4-guanidinobenzoyl)oxy)benzyl)oxy)carbonyl)-5,8,25,28-tetraoxo-12,15,18,21-tetraoxa-3,6,9,24,27,30-hexaazadotriacontane-1,32-dioic acid trifluoroacetate], the inhibition at 0.01 µM in data set [2] and in data set [3] (setting [5]) was not below 50% throughout. Besides, the inhibition at 0.1 µM in data set [2] and in data set [3] (setting [6]) was not below 50% in each case. Also, the inhibition at 0.001 µM in data set [3] (setting [4]) was not below 50%. This molecule also came in with an exposure (AUC) in data set [1] (9 mg/kg) not above 100 ng·h/mL.
Take `N=C(N)Nc1ccc(C(=O)Oc2ccc(COC(=O)N(CCCCCCCCCCCCN(C(=O)OCc3ccc(OC(=O)c4ccc(NC(=N)N)cc4)cc3)C(CC(=O)O)C(=O)O)C(CC(=O)O)C(=O)O)cc2)cc1` (stereo not drawn) [11-(b), 2,2′-(1,20-bis(4-((4-guanidinobenzoyl)oxy)phenyl 3,18-dioxo-2,19-dioxa-4,17-diazaicosane-4,17-diyl)disuccinic acid trifluoroacetate]: the inhibition at 0.01 µM in data set [2] and in data set [3] (setting [5]) was not below 50% in each case. The inhibition at 0.1 µM in data set [2] and in data set [3] (setting [6]) was not below 50% in each case. In addition, the AUC in data set [1] (9 mg/kg) is not above 100 ng·h/mL.
As to `N=C(N)Nc1ccc(C(=O)Oc2cccc(C(=O)N(CCOCCN(C(=O)c3cccc(OC(=O)c4ccc(NC(=N)N)cc4)c3)[C@@H](CC(=O)O)C(=O)O)[C@@H](CC(=O)O)C(=O)O)c2)cc1` [30-(a)], the inhibition at 0.001 µM in data set [2] and in data set [3] (setting [4]) was not below 50% throughout. In addition, the inhibition at 0.01 µM in data set [2] and in data set [3] (setting [5]) was not below 50% throughout. Besides, the inhibition at 0.1 µM in data set [2] and in data set [3] (setting [6]) was not below 50% each time. Moreover, the AUC in data set [1] (10 mg/kg) was not above 100 ng·h/mL.
With `N=C(N)Nc1ccc2c(c1)CCCOc1c(cccc1C(=O)N(CCOCCOCCN(C(=O)c1cccc3c1OCCCc1cc(NC(=N)N)ccc1C(=O)O3)C(CC(=O)O)C(=O)O)C(CC(=O)O)C(=O)O)OC2=O` (stereo not drawn) [19-(b), 3,12-bis(10-guanidino-13-oxo-6,7,8,13-tetrahydrodibenzo[b,f][1,4]dioxecin-4-carbonyl)-6,9-dioxa-3,12-diazatetradecane-1,2,13,14-tetracarboxylic acid trifluoroacetate], in the data set on DIO mouse, the inhibition in vivo at 30 mg/kg was not below 4%. Besides, the inhibition at 0.001 µM in data set [2] and in data set [3] (setting [4]) was not below 50% each time. The inhibition at 0.01 µM in data set [2] and in data set [3] (setting [5]) was not below 50% each time. Also, the inhibition at 0.1 µM in data set [2] and in data set [3] (setting [6]) was not below 50% each time. In addition, the AUC in data set [1] (10 mg/kg) is not above 100 ng·h/mL.
Regarding `Cl.N=C(N)Nc1ccc(C(=O)Oc2ccc(CNS(=O)(=O)N(CCOCCOCCOCCOCCOCCN([C@@H](CC(=O)O)C(=O)O)S(=O)(=O)NCc3ccc(OC(=O)c4ccc(NC(=N)N)cc4)cc3)[C@@H](CC(=O)O)C(=O)O)cc2)cc1` [5-(c), (2S,22S)-3,21-bis(N-(4-((4-guanidinobenzoyl)oxy)benzyl)sulfamoyl)-6,9,12,15,18-pentaoxa-3,21-diazatricosane-1,2,22,23-tetracarboxylic acid hydrochloride], the inhibition in vivo at 100 mg/kg in the data set with DIO mouse was not below 4%. Moreover, the AUC in data set [1] (10 mg/kg) is not above 100 ng·h/mL.
With `N=C(N)Nc1ccc(C(=O)Oc2ccc(CNS(=O)(=O)N(CCCCN([C@@H](CC(=O)O)C(=O)O)S(=O)(=O)NCc3ccc(OC(=O)c4ccc(NC(=N)N)cc4)cc3)[C@@H](CC(=O)O)C(=O)O)cc2)cc1` [8-(b), (2S,2′S)-2,2′-(butane-1,4-diylbis((N-(4-((4-guanidinobenzoyl)oxy)benzyl)sulfamoyl)azanediyl))disuccinic acid trifluoroacetate], in the data set with DIO mouse, the inhibition in vivo at 100 mg/kg is not below 4%. The inhibition at 0.001 µM in data set [2] and in data set [3] (setting [4]) was not below 50% in each case. Further, the inhibition at 0.01 µM in data set [2] and in data set [3] (setting [5]) was not below 50% throughout. Moreover, the inhibition at 0.1 µM in data set [2] and in data set [3] (setting [6]) was not below 50% throughout. The AUC in data set [1] (10 mg/kg) is not above 100 ng·h/mL.
With `N=C(N)Nc1ccc(C(=O)Oc2ccc(COC(=O)N(Cc3cccc(C(=O)O)c3)[C@@H](CC(=O)O)C(=O)NCCOCCOCCOCCOCCNC(=O)[C@H](CC(=O)O)N(Cc3cccc(C(=O)O)c3)C(=O)OCc3ccc(OC(=O)c4ccc(NC(=N)N)cc4)cc3)cc2)cc1` [16-(b), (3S,22S)-3,22-bis((3-carboxybenzyl) (((4-(14-guanidinobenzoyl)oxy)benzyl)oxy)carbonyl)amino)-4,21-dioxo-8,11,14,17-tetraoxa-5,20-diazatetracosane-1,24-dioic acid trifluoroacetate], the inhibition at 0.01 µM in data set [2] and in data set [3] was not below 50% throughout. In addition, the inhibition at 0.1 µM in data set [2] and in data set [3] was not below 50% throughout. For the same molecule, in data set [1] (9 mg/kg), the AUC was not above 100 ng·h/mL.
